Experimental data reported in patent US20150011471A1, “REGENERATION OF ISLET BETA CELLS BY HSP60 DERIVED PEPTIDES” (Yeda Research and Development Co. Ltd., priority 2012, published 2015).
Like-named read-outs stand apart in the source and are kept apart here. Where no end group is shown, it is not given here.

Tests used:
advanced T1D in NOD mice = test system: advanced T1D in NOD mice
Source text: Female non-obese diabetic (NOD) mice, which spontaneously develop autoimmune diabetes that mimics human T1D, are used to test the ability of the Hsp60 peptides and peptide analogs to induce regeneration of pancreatic beta cells. The NOD model is described, for example in Elias and Cohen (Lancet 1994, 343, 704-706). Female NOD mice raised under specific pathogen free (SPF) conditions develop insulitis around 4 weeks of age. […] In addition, the actual appearance of new beta cells, detected by increased C-peptide levels is measured in the revised protocol and not just preservation of initial C-peptide levels as in the original protocol.
Groups of 7 weeks old NOD/ShiLtJ mice (Jackson Number 001976, 10 mice per group) were used. Fasting blood glucose was monitored three times per week during all the treatment period, using methods known in the art. After about 12-20 weeks, when blood glucose reaches a level of […] the mice are treated with insulin in order to keep them alive and divided randomly between the following group treatments: • 1. no treatment; • 2. […]® only, once a week; • 3.
Fasting glucose was measured Hemoglobin A1C and C-peptide levels were measured at the end of treatment, up to six months, depending on the conditions of the control and treated animals.
Histology was performed to detect and count beta cells in pancreatic islets and to observe islet infiltrates. Histology was performed by staining for insulin and detection of appearance of beta cells, as described for example in Lumelsky et al, Science 2001, 292, 1389-1394.

NOD mice = settings: subcutaneous administration; cited from earlier work

Substance | Islets per whole section (advanced T1D in NOD mice; 100 μg in INTRALIPID, SC, 1 injection/week) | Islets per whole section (advanced T1D in NOD mice; 100 μg in PBS, IP, 3 injections/week) | Islets per whole section (advanced T1D in NOD mice; 200 μg in INTRALIPID, SC, 1 injection/week) | Lymphocyte infiltrates compared to control mice treated with placebo (advanced T1D in NOD mice; treated mice overall, Table 1) | Number of beta islets compared to control mice treated with placebo (advanced T1D in NOD mice; treated mice overall, Table 1) | Development of diabetes in NOD mice (NOD mice) | T-cell reactivity to beta cell antigens (NOD mice)
VLGGGVALLRVIPALDSLTPANED [DiaPep277] | 3 | 2 | 1 | less lymphocyte infiltrates | increased number of beta islets |  | 
p277: specific peptide of human Hsp60, one of the immunodominant epitopes in autoimmune diabetes; native cysteines at positions 6 and 11 (VLGGGCALLRCIPALDSLTPANED; UniProt P10809 437-460, looked up, fragment) |  |  |  |  |  | prevented the development of diabetes | down-regulated
